{"source": "patent US20200330456A1", "about": "“NOVEL APPLICATION OF GZD824 AND PHARMACEUTICALLY ACCEPTABLE SALTS THEREOF IN TREATING DISEASES” (HEALTHQUEST PHARMA INC., priority 2016, published 2020)", "key": {"[1]": {"system": "NALM6 (Ph-negative acute lymphoblastic leukemia cell line)", "assay": "CCK8 cell activity test, NALM6", "assay_type": "cell-based", "conditions": "GZD824 0-3 μM/L, 24 hours", "protocol": "1.1 Two types of cells, i.e. NALM6 (Ph-negative acute lymphoblastic leukemia cell line) and SUPB15 (Ph-positive acute lymphoblastic leukemia cell line), were treated with GZD824 of different concentrations (0-3 μM/L) respectively. After 24 hours, CCK8 is added. The mixture was incubated for 2 hours, and then its absorption value at 450 nm was detected with a microplate reader. […] We plotted a chart of cell activity based on the growth inhibition function of GZD824 on these […] types of cells, which is as shown in FIG. 1."}, "[2]": {"system": "NALM6 cells", "assay": "Apoptosis kit (ANNEXIN V, PI) flow cytometry, NALM6", "assay_type": "cell-based", "conditions": "24 hours", "protocol": "1.2 After treating NALM6 and SUPB15 cells respectively with GZD824 (3 μM, 1 μM) and DMSO of different concentrations for 24 hours, apoptosis was detected using an apoptosis kit (ANNEXIN V, PI). Please refer to FIG. 2 for the results. After treating the two types of cells NALM6 and SUPB15 respectively with GZD824 of different concentrations (3 μM/L, 1 μM/L) for 24 hours, the cells were stained with the apoptosis kit (ANNEXIN V, PI), and apoptosis was detected with flow cytometry.\n5.3 After treating NALM6 cells with GZD824, SRC suppressor (KX2-391), STAT3 suppressor (HO-3867) or DMSO for 24 hours, apoptosis was detected by using the apoptosis kit (ANNEXIN V, PI). The ratio of ANNEXIN V positive cells was analyzed by statistical methods. […] For the experimental results, please refer to FIG. 15."}, "[3]": {"system": "SUPB15 cells", "assay": "Cell cycle by flow cytometry, SUPB15", "assay_type": "cell-based", "conditions": "3 μM/L, 24 hours, vs DMSO", "protocol": "1.3 After treating the two types of cells, i.e. NALM6 and SUPB15, with GZD824 (3 μM/L) and DMSO respectively for 24 hours and then treating them with a cell cycle kit, the cell cycle was measured with flow cytometry. […] Please refer to FIG. 3 for the results."}, "[4]": {"system": "primary pre-B ALL PDX in immunodeficient mouse (NSI)", "assay": "PDX mouse model, spleen size and weight", "assay_type": "in vivo", "conditions": "two weeks", "from_the_text": "3.1 According to the conventional method, the primary leukemia cells from patients were transplanted to immunodeficient mouse (NSI) to construct PDX mouse model. Two months after the transplantation, leukemia cells from patients account for over 95% of the mouse spleen. 1×10^6 leukemia cells originated from the spleen of the PDX mouse (P #1, P #2 and P #3) were transplanted through caudal vein to the NSI mouse bodies of eight weeks old and treated with a semilethal irradiation dose. The mice were divided into three groups with three mice in each group. When the ratio of human CD45 reaches 1%±0.2% of peripheral blood leukocyte of PDX mice by flow cytometry, the PDX mice were treated with GZD824 (25 mg/kg), Imatinib (50 mg/kg) and DMSO respectively for two weeks and then executed. […] Please refer to FIG. 6 for the results. […] 3.2 The primary leukemia cells from patients were transplanted to immunodeficient mouse (NSI) to construct PDX mouse model. 1×10^6 leukemia cells originated from PDX mouse (P #4 and P #5) were transplanted through caudal vein to the NSI mouse bodies of eight weeks old and treated with semilethal irradiation dose. The mice were divided into three groups with three mice in each group. […]"}, "[5]": {"system": "primary pre-B ALL PDX in immunodeficient mouse (NSI)", "assay": "PDX mouse model, Giemsa / Hematoxylin-eosin staining of blood, spleen and marrow", "assay_type": "in vivo", "conditions": "PDX patient P #2; vs Imatinib and DMSO", "protocol": "3.3 After executing mice in GZD824, Imatinib or DMSO groups, blood (upper FIG. 8), spleen (middle FIG. 8) and marrow (lower FIG. 8) tissues were stained with Giemsa staining or Hematoxylin-eosin staining method. 10-20 μL of mouse blood drop was pipetted to a glass slide, and evenly spread on the slide, dried in shade at room temperature, stained with Giemsa working fluid for 15 minutes and eluted with eluents. After being fixed with neutral formaldehyde for 24 hours, the mouse spleen and marrow were dehydrated, made transparent, waxed, embedded, sliced, stained and then observed with a microscope."}, "[6]": {"system": "phosphorylated Rb", "assay": "Western blot of NALM6 cells, phospho-Rb", "assay_type": "cell-based", "conditions": "3 μM/L, 1 μM/L, 24 hours", "protocol": "5.1. NALM6 cells treated with GZD824 were detected by Western blot method. After treating NALM6 cells with GZD824 of different concentrations (3 μM/L, 1 μM/L) for 24 hours, cells were collected and lysed to extract proteins. According to procedure of Western blot method, the extracted total proteins were analyzed with phospho-SRC, SRC, phospho-STAT3, STAT3, phospho-Rb, Rb and c-Myc antibodies. […] From the protein perspective, GZD824 kills leukemia cells through suppressing SRC/STAT3 signal pathway. Please refer to FIG. 13 for the experimental results."}, "[7]": {"system": "CCND1 gene expression", "assay": "Fluorescence quantitative PCR in NALM6 cells, CCND1", "assay_type": "cell-based", "conditions": "3 μM/L, 24 hours, vs DMSO", "protocol": "5.2 After being treated with 3 μM/L GZD824 and DMSO for 24 hours, NALM6 cells were collected to 1 ml TRIzol to extract RNA and reversely transcribed into cDNA. The expressions of four genes, i.e. BCL-XL, CCND1, CDK4 and CCKN1A, in these two groups of cells were detected with the fluorescence quantitative PCR method. […] From the molecular perspective, the mechanism of GZD824 killing leukemia cells can be explained. For the experimental results, please refer to FIG. 14."}, "[8]": {"system": "human primary leukemia cells from P #2 PDX mouse", "assay": "Apoptosis of human primary leukemia cells from P #2 PDX mouse blood, spleen and marrow", "assay_type": "cell-based", "conditions": "P #2 PDX cells; 1 μM/L, 24 hours", "protocol": "6.1 Human primary leukemia cells were collected from P #2 PDX mouse blood, spleen and marrow and the leukemia cells originated from these three different mouse organs were co-cultured with 1 μM/L GZD824 or DMSO for 24 hours. The ratios of ANNEXIN V positive cells were analyzed by statistical methods. […] Please refer to FIG. 16 for the results."}, "[9]": {"system": "human primary leukemia cells from P #1 PDX mouse spleen", "assay": "Apoptosis of human primary leukemia cells from P #1 PDX mouse spleen, with and without IGF-1", "assay_type": "cell-based", "conditions": "P #1 PDX spleen cells; GZD824 1 μM/L, 24 hours, vs DMSO", "protocol": "6.2 Human primary leukemia cells were extracted from P #1 PDX mouse spleen and co-cultured with DMSO, GZD824 (1 μM/L), IGF-1 (10 ng/mL), or GZD824 (1 μM/L) and IGF-1 (10 ng/mL) for 24 hours. The ratios of ANNEXIN V positive cells were analyzed by statistical methods. […] Please refer to FIG. 17 for the experimental results."}}}
{"smiles": "Cc1ccc(C(=O)Nc2ccc(CN3CCN(C)CC3)c(C(F)(F)F)c2)cc1C#Cc1cnc2[nH]ncc2c1", "note": "[GZD824, (3-((1H-pyrazol[3,4-b]pyridine-5-substituted)ethinyl)-4-methyl-N-(4-((4-methylpiperazine-1-substituted)methyl)-3-(trifluoromethyl)phenyl)benzamide)]", "values": [{"measurement": "cell activity (CCK8, absorption at 450 nm)", "setting": "[1]", "value": "prominently decrease the cell activity"}, {"measurement": "apoptosis (ANNEXIN V positive cells)", "setting": "[2]; 3 μM, 1 μM, vs DMSO", "value": "prominently enhance apoptosis"}, {"measurement": "ratio of apoptosis (ANNEXIN V positive cells), comparison of inhibitors", "setting": "[2]; GZD824 vs KX2-391 vs HO-3867 vs DMSO", "value": "highest ratio of apoptosis"}, {"measurement": "ratio of cells at G0/G1 phase", "setting": "[3]", "value": "increase the ratio of these two types of cells at G0/G1 phase"}, {"measurement": "sizes of mouse spleens", "setting": "[4]; PDX P #1, P #2, P #3, GZD824 25 mg/kg, vs Imatinib (50 mg/kg) and DMSO groups", "value": "prominently smaller than those of the other two groups"}, {"measurement": "sizes of mouse spleens", "setting": "[4]; PDX P #4 and P #5, vs Imatinib and DMSO groups", "value": "no prominent difference from those of the other two groups"}, {"measurement": "infiltration of primary leukemia cells in mouse blood, spleen and marrow (staining)", "setting": "[5]", "value": "prominently decrease the infiltration of the primary leukemia cells"}, {"measurement": "expression of phosphorylated Rb", "setting": "[6]", "value": "suppresses the expression"}, {"measurement": "expression of CCND1 gene", "setting": "[7]", "value": "down-regulated"}, {"measurement": "ratio of apoptosis of leukemia cells originated from the mouse marrow, compared with blood and spleen", "setting": "[8]", "value": "lowest"}, {"measurement": "apoptosis of primary leukemia cells (ANNEXIN V positive cells)", "setting": "[9]", "value": "facilitate apoptosis of the primary leukemia cells"}]}
